Measured values as given in ChEMBL document CHEMBL1201862, “PubChem BioAssay data set” (2004).
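Where inhibition never reached the appropriate level, the endpoint shown equals the highest concentration tested. Otherwise, values were interpolated linearly from a five-concentration, 48-hour dose response in 96-well plates. Abbreviation: GI50, concentration required for 50% inhibition of growth.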 The source made the active and inactive calls. No stated cut-off is given here; in the data, active = GI50 up to about 1.1 µM and inactive = higher.

How the values were obtained:
Assay in all cases: DTP human tumour cell line panel, 48 h
[1] = tested on: SNB-19
[2] = tested on: MDA-MB-231
[3] = tested on: MDA-N
[4] = tested on: Malme-3M
[5] = tested on: A549
[6] = tested on: 786-0
[7] = tested on: SF-295
[8] = tested on: HT-29
[9] = tested on: SW-620
[10] = tested on: OVCAR-5
[11] = tested on: SF-268
[12] = tested on: UACC-257
[13] = tested on: NCI-H23
[14] = tested on: HCT-116
[15] = tested on: RPMI-8226
[16] = tested on: SN12C
[17] = tested on: KM12
[18] = tested on: U-251
[19] = tested on: A498
[20] = tested on: T47D
[21] = tested on: RXF 393
[22] = tested on: SK-MEL-28
[23] = tested on: COLO 205
[24] = tested on: MDA-MB-435
[25] = tested on: SNB-75
[26] = tested on: HCC 2998
[27] = tested on: SK-MEL-5
[28] = tested on: TK-10
[29] = tested on: NCI-H460
[30] = tested on: UACC-62
[31] = tested on: OVCAR-4
[32] = tested on: CAKI-1
[33] = tested on: M14
[34] = tested on: HL-60
[35] = tested on: UO-31
[36] = tested on: LOX IMVI
[37] = tested on: Hs-578T
[38] = tested on: K562
[39] = tested on: SK-OV-3
[40] = tested on: MOLT-4
[41] = tested on: HOP-92
[42] = tested on: ACHN
[43] = tested on: IGROV-1
[44] = tested on: CCRF-CEM
[45] = tested on: SF-539
[46] = tested on: SR
[47] = tested on: MCF7
[48] = tested on: OVCAR-3
[49] = tested on: HOP-62
[50] = tested on: DU-145
[51] = tested on: PC-3
[52] = tested on: BT-549
[53] = tested on: SK-MEL-2
[54] = tested on: HCT-15
[55] = tested on: NCI-H522
[56] = tested on: OVCAR-8
[57] = tested on: NCI/ADR-RES
[58] = tested on: NCI-H226
[59] = tested on: EKVX

`[N-]=[N+]=NC1=CC(=O)c2cccc3cccc1c23` was tested. Which GI50 [1] did it give?
The GI50 was 36.5 µM (inactive).

What about the GI50 [2] of the same molecule?
Its GI50 is 73.8 µM (inactive).

What about the GI50 [3] of the same molecule?
The GI50 was 46.2 µM (inactive).

And the GI50 [4]?
The GI50 was 31.4 µM (inactive).

What about the GI50 [5] of the same molecule?
The GI50 was 32.4 µM (inactive).

And the GI50 [6]?
The GI50 was 31.9 µM (inactive).

What about the GI50 [7] of the same molecule?
The GI50 was 24.9 µM (inactive).

What about the GI50 [8] of the same molecule?
Its GI50 is 34.6 µM (inactive).

What about the GI50 [9] of the same molecule?
Its GI50 is 17 µM (inactive).

What about the GI50 [10] of the same molecule?
Its GI50 is 49.3 µM (inactive).

And the GI50 [11]?
Its GI50 is 29.9 µM (inactive).

And the GI50 [12]?
The GI50 was 31.7 µM (inactive).

And the GI50 [13]?
The GI50 was 20.7 µM (inactive).

And the GI50 [14]?
Its GI50 is 23.5 µM (inactive).

What about the GI50 [15] of the same molecule?
The GI50 was 56.6 µM (inactive).

And the GI50 [16]?
The GI50 was 43.3 µM (inactive).

And the GI50 [17]?
Its GI50 is 85.9 µM (inactive).

And the GI50 [18]?
Its GI50 is 20.1 µM (inactive).

What about the GI50 [19] of the same molecule?
Its GI50 is 12.2 µM (inactive).

What about the GI50 [20] of the same molecule?
Its GI50 is 22.3 µM (inactive).

And the GI50 [21]?
Its GI50 is 16.8 µM (inactive).

And the GI50 [22]?
The GI50 was 33.3 µM (inactive).

What about the GI50 [23] of the same molecule?
Its GI50 is 49.7 µM (inactive).

What about the GI50 [24] of the same molecule?
The GI50 was 40 µM (inactive).

What about the GI50 [25] of the same molecule?
The GI50 was 13.5 µM (inactive).

What about the GI50 [26] of the same molecule?
Its GI50 is 38 µM (inactive).

And the GI50 [27]?
The GI50 was 12 µM (inactive).

And the GI50 [28]?
Its GI50 is 44.4 µM (inactive).

What about the GI50 [29] of the same molecule?
Its GI50 is 31.1 µM (inactive).

And the GI50 [30]?
The GI50 was 16.5 µM (inactive).

What about the GI50 [31] of the same molecule?
Its GI50 is 56.9 µM (inactive).

And the GI50 [32]?
Its GI50 is 22.2 µM (inactive).

And the GI50 [33]?
Its GI50 is 18.4 µM (inactive).

And the GI50 [34]?
The GI50 was > 100 µM (inactive).

What about the GI50 [35] of the same molecule?
The GI50 was 24.9 µM (inactive).

What about the GI50 [36] of the same molecule?
The GI50 was 17.3 µM (inactive).

What about the GI50 [37] of the same molecule?
The GI50 was 17.9 µM (inactive).

What about the GI50 [38] of the same molecule?
The GI50 was 26.2 µM (inactive).

And the GI50 [39]?
Its GI50 is 15.3 µM (inactive).

What about the GI50 [40] of the same molecule?
The GI50 was 10.7 µM (inactive).

What about the GI50 [41] of the same molecule?
The GI50 was 18.4 µM (inactive).

What about the GI50 [42] of the same molecule?
The GI50 was 29.2 µM (inactive).

And the GI50 [43]?
The GI50 was 15.8 µM (inactive).

What about the GI50 [44] of the same molecule?
The GI50 was 10.6 µM (inactive).

What about the GI50 [45] of the same molecule?
Its GI50 is 31 µM (inactive).

And the GI50 [46]?
The GI50 was 67.3 µM (inactive).

What about the GI50 [47] of the same molecule?
Its GI50 is 34.2 µM (inactive).

What about the GI50 [48] of the same molecule?
Its GI50 is 31.7 µM (inactive).

And the GI50 [49]?
Its GI50 is 15.7 µM (inactive).

And the GI50 [50]?
Its GI50 is 33.4 µM (inactive).

What about the GI50 [51] of the same molecule?
The GI50 was 16.6 µM (inactive).

And the GI50 [52]?
Its GI50 is 27.1 µM (inactive).

Which GI50 [1] does the source give for `NC(Cc1cc(I)c(Oc2ccc(O)c(I)c2)c(I)c1)C(=O)O` (stereo not drawn) [RATHYRONINE] here?
The GI50 was 80.9 µM (inactive).

What about the GI50 [2] of the same molecule?
The GI50 was 29.3 µM (inactive).

What about the GI50 [3] of the same molecule?
Its GI50 is > 100 µM (inactive).

And the GI50 [4]?
Its GI50 is 36.8 µM (inactive).

What about the GI50 [5] of the same molecule?
The GI50 was > 100 µM (inactive).

And the GI50 [6]?
Its GI50 is > 100 µM (inactive).

And the GI50 [7]?
Its GI50 is > 100 µM (inactive).

What about the GI50 [8] of the same molecule?
The GI50 was > 100 µM (inactive).

What about the GI50 [9] of the same molecule?
Its GI50 is > 100 µM (inactive).

What about the GI50 [10] of the same molecule?
Its GI50 is > 100 µM (inactive).

What about the GI50 [11] of the same molecule?
Its GI50 is 42.6 µM (inactive).

What about the GI50 [53] of the same molecule?
The GI50 was 19.9 µM (inactive).

What about the GI50 [12] of the same molecule?
Its GI50 is > 100 µM (inactive).

And the GI50 [13]?
The GI50 was > 100 µM (inactive).

And the GI50 [14]?
The GI50 was > 100 µM (inactive).

And the GI50 [15]?
The GI50 was 29.9 µM (inactive).

What about the GI50 [16] of the same molecule?
The GI50 was > 100 µM (inactive).

And the GI50 [17]?
The GI50 was > 100 µM (inactive).

And the GI50 [18]?
The GI50 was 43.4 µM (inactive).

What about the GI50 [19] of the same molecule?
The GI50 was 35.7 µM (inactive).

What about the GI50 [20] of the same molecule?
The GI50 was 81.7 µM (inactive).

And the GI50 [21]?
The GI50 was > 100 µM (inactive).

What about the GI50 [22] of the same molecule?
Its GI50 is 38.9 µM (inactive).

What about the GI50 [23] of the same molecule?
The GI50 was > 100 µM (inactive).

What about the GI50 [24] of the same molecule?
Its GI50 is > 100 µM (inactive).

What about the GI50 [25] of the same molecule?
Its GI50 is 54.3 µM (inactive).

What about the GI50 [27] of the same molecule?
Its GI50 is 37.6 µM (inactive).

And the GI50 [28]?
Its GI50 is 42 µM (inactive).

And the GI50 [30]?
Its GI50 is 64.4 µM (inactive).

What about the GI50 [54] of the same molecule?
The GI50 was greater than 100 µM.

And the GI50 [31]?
Its GI50 is > 100 µM (inactive).

What about the GI50 [32] of the same molecule?
Its GI50 is > 100 µM (inactive).

And the GI50 [33]?
The GI50 was > 100 µM (inactive).

What about the GI50 [35] of the same molecule?
Its GI50 is > 100 µM (inactive).

And the GI50 [36]?
The GI50 was 34.8 µM (inactive).

And the GI50 [37]?
The GI50 was 37.9 µM (inactive).

What about the GI50 [55] of the same molecule?
The GI50 was 36.1 µM (inactive).

What about the GI50 [39] of the same molecule?
The GI50 was > 100 µM (inactive).

And the GI50 [41]?
Its GI50 is 82.4 µM (inactive).

And the GI50 [56]?
The GI50 was > 100 µM (inactive).

What about the GI50 [57] of the same molecule?
Its GI50 is > 100 µM (inactive).

What about the GI50 [42] of the same molecule?
Its GI50 is > 100 µM (inactive).

And the GI50 [43]?
Its GI50 is 73.1 µM (inactive).

What about the GI50 [58] of the same molecule?
Its GI50 is > 100 µM (inactive).

What about the GI50 [47] of the same molecule?
The GI50 was 41.6 µM (inactive).

And the GI50 [59]?
The GI50 was > 100 µM (inactive).

What about the GI50 [48] of the same molecule?
The GI50 was > 100 µM (inactive).

What about the GI50 [49] of the same molecule?
The GI50 was > 100 µM (inactive).

And the GI50 [50]?
Its GI50 is > 100 µM (inactive).

What about the GI50 [51] of the same molecule?
Its GI50 is > 100 µM (inactive).

And the GI50 [52]?
The GI50 was 61.1 µM (inactive).
